Data taken from publication PMC6747051, “Screening of Antiviral Components of Ma Huang Tang and Investigation on the Ephedra Alkaloids Efficacy on Influenza Virus Type A” (Frontiers in Pharmacology, 2019).
Values after ≈ are worked out from the molar mass of the structure shown. Values joined by “and” are separate entries in the source; they are usually repeats but may differ in a detail not shown here. Equal entries are not always repeated. “Also recorded” adds a separate entry of the source. Where two headings read alike, the source gives them in different places.

Columns and labels:
influenza A virus [1] = details: for cell viability rate: dog
MDCK cells = details: dog
influenza A virus [2] = experiment: microbe, parasite or virus in culture; details: MDCK, 48 h, read-out: Cell survival rate
[3] = test system: influenza A virus (A PR/8/34); experiment: Spleen and thymus indexes of infected mice; assay type: in vivo, ICR mice
Procedure: (§1) A total of 108 ICR mice were randomly divided into the control uninfected group, the control infected group, oseltamivir group, LEP-treated groups and DPEP-treated groups; 12 mice were designed in each group. Except for the mice in the control uninfected group, others were anaesthetized with ethyl ether and intranasally infected with 10LD50 influenza A virus (A PR/8/34) in a volume of 50 μl PBS to induce viral pneumonia. […] Meanwhile, the control uninfected group and the control infected group were only given saline with the same volume. […] The adult daily dose was converted into the high dose of mice, which was about 40 mg/kg. Based on the high dose of the drug, the medium and low doses were set.
(§2) In the 3rd and 7th days after infection, to monitor the histological changes in influenza A virus-infected animals, six mice were sacrificed randomly in each group, and lung, spleen and thymus tissues were obtained and weighed after being washed with saline solution. Lung index and the inhibition ratio of the lung index were calculated as our previous report, while spleen and thymus indexes were calculated based on the following formulas ([Ling et al., 2017]).
Spleen index = (spleen weight/body weight)×100%;
Thymus index = (thymus weight/body weight)×100%;

[4] = test system: IL-1β, IL-6 and IL-10 in serum; assay type: in vivo, ICR mice; details: 3rd and 7th day after infection
Procedure: as §1
In days 3 and 7 post-infection, blood samples of six mice from each group were collected from retroorbital sinus under mild ethyl ether anesthesia before they were sacrificed, then under 4 °C they were centrifuged at 3000 rpm for 20 min to obtain serum. The levels of IL-1β, IL-6 and IL-10 in murine serum were determined by ELISA kits.

[5] = test system: IL-6, IFN-β and TNF-α levels; assay type: cell-based, canine
[6] = test system: TLR4, TLR7, MyD88 and NF-κB p65 protein expression; set-up: species or system ICR mice; details: mouse, in vivo
influenza A virus [7] = experiment: Viral load assay using real-time RT-PCR (M1 gene) and CPE in infected MDCK cells; assay type: cell-based, influenza virus A/PR8/34 (H1N1); details: for virus load vs oseltamivir group: LMEP 31.25 μg/ml, LEP […], DPEP […]
[8] = test system: influenza A virus (A PR/8/34); experiment: Lung index of influenza A virus-infected mice; assay type: in vivo, ICR mice
Procedure: as §1, §2

influenza A virus [9] = experiment: Antiviral activity assay in vitro with four ways of drug delivery (MTT, MDCK cells); assay type: cell-based, influenza virus A/PR8/34 (H1N1); details: for EC50: Influenza A virus, MDCK
[10] = test system: TLRs signaling pathway mRNA; assay type: cell-based, canine
[11] = 24 and 48 h after administration

SMILES: N#C[C@H](O[C@@H]1O[C@H](CO[C@@H]2O[C@H](CO)[C@@H](O)[C@H](O)[C@H]2O)[C@@H](O)[C@H](O)[C@H]1O)c1ccccc1 [AMY, amygdalin]
- effect on the cell viability after virus infection (in words) (influenza A virus [1]): little antiviral effect
- TC0 (MDCK cells): 31.25 µg/mL
- TC50 (MDCK cells): 563.64 µg/mL (≈ 1230 µM)
- viability at 0.98 µg/mL (influenza A virus [2]): 26.2%
- viability at 1.95 µg/mL (influenza A virus [2]): 27%
- viability at 3.91 µg/mL (influenza A virus [2]): 29%
- viability at 7.81 µg/mL (influenza A virus [2]): 27.9%
- viability at 31.25 µg/mL (influenza A virus [2]): 28.9%
- viability at […] (influenza A virus [2]): 28.2%

SMILES: O=C1C[C@@H](c2ccc(O[C@@H]3O[C@H](CO)[C@@H](O)[C@H](O)[C@H]3O)cc2)Oc2cc(O)ccc21 [LIQ, liquiritin]
- effect on the cell viability after virus infection (in words) (influenza A virus [1]): little antiviral effect
- TC0 (MDCK cells; 48 h): 250.00 µg/mL
- TC50 (MDCK cells; 48 h): 680.77 µg/mL (≈ 1630 µM)
- viability at 7.81 µg/mL (influenza A virus [2]): 26.6%
- viability at 31.25 µg/mL (influenza A virus [2]): 28.4%
- viability at 125 µg/mL (influenza A virus [2]): 32.2%
- viability at 250 µg/mL (influenza A virus [2]): 33.7%
- viability at […] (influenza A virus [2]): 26.9% and 28%

SMILES: O=C(O)/C=C/c1ccccc1 [CMA, cinnamic acid]
- effect on the cell viability after virus infection (in words) (influenza A virus [1]): little antiviral effect
- viability at 1.95 µg/mL (influenza A virus [2]): 27.7%
- viability at 3.91 µg/mL (influenza A virus [2]): 27.9%
- viability at 7.81 µg/mL (influenza A virus [2]): 30.9%
- viability at 31.25 µg/mL (influenza A virus [2]): 33.5%
- viability at […] (influenza A virus [2]): 34.8%

SMILES: CC1(C)[C@@H](O[C@H]2O[C@H](C(=O)O)[C@@H](O)[C@H](O)[C@H]2O[C@@H]2O[C@H](C(=O)O)[C@@H](O)[C@H](O)[C@H]2O)CC[C@]2(C)[C@H]3C(=O)C=C4[C@@H]5C[C@@](C)(C(=O)O)CC[C@]5(C)CC[C@@]4(C)[C@]3(C)CC[C@@H]12 [GA, glycyrrhizic acid]
- effect on the cell viability after virus infection (in words) (influenza A virus [1]): slightly increase the cell viability rate, but not obviously
- cell viability rate (influenza A virus [1]): about 47%
- TC0 (MDCK cells; 48 h): 125.00 µg/mL
- TC50 (MDCK cells; 48 h): 663.74 µg/mL (≈ 807 µM)
- viability at 3.91 µg/mL (influenza A virus [2]): 31.1%
- viability at 7.81 µg/mL (influenza A virus [2]): 32.8%
- viability at 31.25 µg/mL (influenza A virus [2]): 43%
- viability at 125 µg/mL (influenza A virus [2]): 47.2%
- viability at […] (influenza A virus [2]): 34.4% and 46%

SMILES: OC/C=C/c1ccccc1 [CAO, cinnamic alcohol]
- effect on the cell viability after virus infection (in words) (influenza A virus [1]): little antiviral effect
- TC0 (MDCK cells): 125.00 µg/mL
- TC50 (MDCK cells): 390.84 µg/mL (≈ 2910 µM)
- viability at 3.91 µg/mL (influenza A virus [2]): 25%
- viability at 7.81 µg/mL (influenza A virus [2]): 25.9%
- viability at 31.25 µg/mL (influenza A virus [2]): 26.4%
- viability at 125 µg/mL (influenza A virus [2]): 32.6%
- viability at […] (influenza A virus [2]): 26.7% and 29.9%

SMILES: CCOC(=O)C1=C[C@@H](OC(CC)CC)[C@H](NC(C)=O)[C@@H](N)C1 [Oseltamivir, reference compound]
- TC0 (MDCK cells; 48 h): 100.00 µg/mL
- TC50 (MDCK cells; 48 h): 500.00 µg/mL (≈ 1600 µM)
- viability at 10 µg/mL (influenza A virus [2]): 82.7%
- spleen index ([3]; Day 3, 22 mg/kg): 0.51 ± 0.13
- thymus index ([3]; Day 3, 22 mg/kg): 0.45 ± 0.05
- spleen index ([3]; Day 7, 22 mg/kg): 0.49 ± 0.08
- thymus index ([3]; Day 7, 22 mg/kg): 0.38 ± 0.03
- IL-10 in serum ([4]; P < 0.01): accelerated the production of IL-10
- IL-1β in serum ([4]; P < 0.01 or P < 0.05): dramatically inhibited the production of IL-1β
- IL-6 in serum ([4]; P > 0.05): slightly increased
- IL-6 level in cell supernatant vs control infected group [5]: significantly higher than that in the control infected group
- protein expression levels of MyD88 and NF-κB p65 in lung tissue [6]: significantly down-regulated
- protein expression levels of TLR4 and TLR7 in lung tissue [6]: Decreased
- CPE of infected MDCK cells (influenza A virus [7]; [11]): significantly reduce the CPE
- Inhibition ratio of lung index ([8]; Day 3, 22 mg/kg by gavage): 41.27%
- Lung index ([8]; Day 3, 22 mg/kg by gavage): 0.74 ± 0.03
- Inhibition ratio of lung index ([8]; Day 7, 22 mg/kg by gavage): 38.86%
- Lung index ([8]; Day 7, 22 mg/kg by gavage): 1.18 ± 0.11

SMILES: C[C@@H]([C@H](O)c1ccccc1)N(C)C [LMEP, L-methylephedrin]
- cell viability rate (influenza A virus [1]): ≥ 70%
- TC0 (MDCK cells): 31.25 µg/mL
- TC50 (MDCK cells): 216.77 µg/mL (≈ 1210 µM)
- cells' survival rate (MDCK cells): higher than 90%
- viability at 0.98 µg/mL (influenza A virus [2]): 57.3%
- viability at 1.95 µg/mL (influenza A virus [2]): 63.2%
- viability at 3.91 µg/mL (influenza A virus [2]): 66.6%
- viability at 7.81 µg/mL (influenza A virus [2]): 70.3%
- viability at 31.25 µg/mL (influenza A virus [2]): 77.8%
- viability at […] (influenza A virus [2]): 75.1%
- IL-6 level in cell supernatant vs control infected group [5]: significantly higher than that in the control infected group
- level of IFN-β in cell supernatant vs control infected group [5]: significantly increase; also recorded: increased
- secretion of TNF-α vs control infected group [5]: significantly inhibited the secretion of TNF-α
- antiviral effective rate (ER) (influenza A virus [9]; 31.25 μg/ml (highest concentration), post-treatment host cells after virus infection): 63.52% and 64.16%
- antiviral effective rate (ER) (influenza A virus [9]; 31.25 μg/ml, limited treatment of 1 hour during virus infection): 60.58%
- antiviral effective rate (ER) (influenza A virus [9]; 31.25 μg/ml, pre-treatment host cells prior to virus infection): 56.94%
- antiviral effective rate (ER) (influenza A virus [9]; 31.25 μg/ml, pre-treatment of virus with drug): 61.48%
- EC50 (influenza A virus [9]; drug delivery way: Blocking viruses invading host cells): 20.4 µg/mL (≈ 114 µM)
- EC50 (influenza A virus [9]; drug delivery way: Directly inhibiting virus): 7.55 µg/mL (≈ 42.1 µM)
- EC50 (influenza A virus [9]; drug delivery way: Inhibiting the biosynthesis of virus): 6.65 µg/mL (≈ 37.1 µM)
- EC50 (influenza A virus [9]; drug delivery way: Intervening the adsorption of virus): 7.85 µg/mL (≈ 43.8 µM)
- antiviral effective rate (ER) (influenza A virus [9]; final concentration 3.91 μg/ml): more than 34.00%
- CPE of infected MDCK cells (influenza A virus [7]; [11]): significantly reduce the CPE
- virus load vs oseltamivir group (influenza A virus [7]; 24 h treatment, P < 0.05): significantly lower than that of oseltamivir group
- virus load vs oseltamivir group (influenza A virus [7]; 48 h treatment): no difference
- viral load in MDCK cells vs control infected group (influenza A virus [7]; each dose group, 24 and 48 h after administration, P < 0.01 or P < 0.05): significantly decreased
- mRNA expression levels of TLR7, NF-κB p65, TLR3 and IRF3 [10]: significantly reduced
- mRNA expression of IFN-β [10]: significantly increased
- mRNA expression of TLR4 [10]: significant decreased
- mRNA expression of TLR4, MyD88 and TRAF3 [10]: significantly reduced
- mRNA expression of TRAF3 [10]: significantly reduced
